Assays:
EZH2 = EZH2 (Homo sapiens, UniProt Q15910); experiment: AlphaLISA assay for EZH2; format: biochemical; conditions: enzymatic assay; means of at least three measurements
HCT15 = experiment: MTT cell growth inhibition, HCT15; format: cell-based, human; conditions: Homo sapiens, HCT-15, 96 h, read-out: IC50 HCT15, MTT, treatment 96 h; means of at least three measurements
MDA-MB-231 = experiment: MTT cell growth inhibition, MDA-MB-231; format: cell-based; conditions: Homo sapiens, MDA-MB-231, 96 h, read-out: IC50 MDA-MB-231

Chain of EZH2 (Q15910 whole entry): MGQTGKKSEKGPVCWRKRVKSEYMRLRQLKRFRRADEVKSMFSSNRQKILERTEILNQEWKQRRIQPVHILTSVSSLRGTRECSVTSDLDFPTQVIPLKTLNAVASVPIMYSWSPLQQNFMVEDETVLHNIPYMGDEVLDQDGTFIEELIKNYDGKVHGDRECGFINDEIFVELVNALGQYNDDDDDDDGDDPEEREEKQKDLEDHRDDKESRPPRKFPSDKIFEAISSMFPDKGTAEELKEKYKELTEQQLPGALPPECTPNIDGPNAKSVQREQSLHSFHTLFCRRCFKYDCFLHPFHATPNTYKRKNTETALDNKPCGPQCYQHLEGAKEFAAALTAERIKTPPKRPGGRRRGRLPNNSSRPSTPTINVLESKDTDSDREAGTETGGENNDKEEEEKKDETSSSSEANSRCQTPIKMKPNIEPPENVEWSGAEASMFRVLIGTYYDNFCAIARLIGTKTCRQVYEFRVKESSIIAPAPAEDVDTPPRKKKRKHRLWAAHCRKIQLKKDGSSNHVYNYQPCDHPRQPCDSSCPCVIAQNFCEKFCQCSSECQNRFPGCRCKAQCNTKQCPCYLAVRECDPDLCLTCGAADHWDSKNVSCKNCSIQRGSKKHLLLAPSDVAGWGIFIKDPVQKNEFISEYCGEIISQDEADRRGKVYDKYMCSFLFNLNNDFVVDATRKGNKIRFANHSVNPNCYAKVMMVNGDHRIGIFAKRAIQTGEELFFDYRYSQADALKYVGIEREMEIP
Chain of EZH2 (O75530 whole entry partner): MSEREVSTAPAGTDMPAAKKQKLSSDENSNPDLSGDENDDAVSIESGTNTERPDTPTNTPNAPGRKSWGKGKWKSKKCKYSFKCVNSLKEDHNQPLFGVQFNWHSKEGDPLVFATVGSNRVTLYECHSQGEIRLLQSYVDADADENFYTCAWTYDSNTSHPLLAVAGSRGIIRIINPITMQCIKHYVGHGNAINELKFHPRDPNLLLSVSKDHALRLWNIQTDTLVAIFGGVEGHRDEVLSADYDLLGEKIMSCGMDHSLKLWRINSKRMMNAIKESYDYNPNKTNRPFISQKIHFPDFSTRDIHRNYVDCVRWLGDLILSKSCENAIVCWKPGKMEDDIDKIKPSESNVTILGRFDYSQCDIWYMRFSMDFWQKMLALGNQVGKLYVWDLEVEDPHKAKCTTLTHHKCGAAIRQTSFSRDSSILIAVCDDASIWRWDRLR
Chain of EZH2 (Q15022 whole entry partner): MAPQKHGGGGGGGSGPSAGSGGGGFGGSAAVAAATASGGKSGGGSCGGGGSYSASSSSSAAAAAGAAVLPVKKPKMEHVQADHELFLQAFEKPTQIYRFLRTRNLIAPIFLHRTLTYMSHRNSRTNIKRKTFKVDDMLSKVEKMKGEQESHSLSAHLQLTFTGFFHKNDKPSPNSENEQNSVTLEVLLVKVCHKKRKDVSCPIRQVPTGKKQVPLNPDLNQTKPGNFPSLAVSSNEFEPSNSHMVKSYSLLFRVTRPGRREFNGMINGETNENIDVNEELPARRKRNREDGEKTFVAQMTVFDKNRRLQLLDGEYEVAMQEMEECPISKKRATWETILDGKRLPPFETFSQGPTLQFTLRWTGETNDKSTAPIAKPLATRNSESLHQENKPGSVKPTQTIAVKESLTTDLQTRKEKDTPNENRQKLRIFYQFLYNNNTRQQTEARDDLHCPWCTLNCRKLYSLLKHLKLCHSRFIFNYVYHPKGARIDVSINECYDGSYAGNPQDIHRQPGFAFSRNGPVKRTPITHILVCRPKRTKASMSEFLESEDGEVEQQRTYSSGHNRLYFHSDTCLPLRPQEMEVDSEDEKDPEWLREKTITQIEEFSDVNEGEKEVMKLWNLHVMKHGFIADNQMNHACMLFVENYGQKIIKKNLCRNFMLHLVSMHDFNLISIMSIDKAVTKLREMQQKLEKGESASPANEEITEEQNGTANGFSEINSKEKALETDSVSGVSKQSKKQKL

| Compound | IC50 (EZH2) [µM] | IC50 (HCT15) [µM] | IC50 (MDA-MB-231) [µM] |
| --- | --- | --- | --- |
| COc1cc2nc(N3CCCN(C)CC3)cc(NC3CCN(C)CC3)c2cc1OC [Compound 9g, 6,7-Dimethoxy-2-(4-methyl-1,4-diazepan-1-yl)-N-(1-methylpiperidin-4-yl)quinolin-4-amine] | 17.8 ± 2.07 | 15.9 ± 1.85 | > 20 |
| COc1cccc2nc(Nc3cc(C(F)(F)F)cc(C(F)(F)F)c3)cc(NC3CCN(Cc4ccccc4)CC3)c12 [Compound 5f, N4-(1-Benzylpiperidin-4-yl)-N2-(3,5-bis(trifluoromethyl)phenyl)-5-methoxyquinoline-2,4-diamine] | 21.6 ± 2.35 | 10.2 ± 1.24 | > 20 |
| COc1ccc2nc(N3CCCN(C)CC3)cc(NC3CCN(C)CC3)c2c1OC [Compound 9d, 5,6-Dimethoxy-2-(4-methyl-1,4-diazepan-1-yl)-N-(1-methylpiperidin-4-yl)quinolin-4-amine] | 5.6 ± 0.45 | 8.6 ± 2.2 | 12.4 ± 0.95 |
| COc1cccc2nc(N3CCCN(C)CC3)cc(Nc3ccc([N+](=O)[O-])cc3)c12 [Compound 5u, 5-Methoxy-2-(4-methyl-1,4-diazepan-1-yl)-N-(4-nitrophenyl)quinolin-4-amine] | 26.2 ± 2.54 | 17.8 ± 1.27 | 14.9 ± 2.2 |
| COc1ccc(OC)c2c(NC3CCN(C)CC3)cc(N3CCCN(C)CC3)nc12 [Compound 9f, 5,8-Dimethoxy-2-(4-methyl-1,4-diazepan-1-yl)-N-(1-methylpiperidin-4-yl)quinolin-4-amine] | 9.2 ± 0.51 | 15.5 ± 0.53 | 12.4 ± 0.49 |
| COc1cccc2nc(N3CCCN(C)CC3)cc(Nc3cncnc3)c12 [Compound 5t, 5-Methoxy-2-(4-methyl-1,4-diazepan-1-yl)-N-(pyrimidin-5-yl)quinolin-4-amine] | 35.3 ± 1.61 | > 20 | > 20 |
| COc1cc(OC)c2c(NC3CCN(C)CC3)cc(N3CCCN(C)CC3)nc2c1 [Compound 9e, 5,7-Dimethoxy-2-(4-methyl-1,4-diazepan-1-yl)-N-(1-methylpiperidin-4-yl)quinolin-4-amine] | 6.7 ± 0.36 | 10.6 ± 0.83 | 12.5 ± 0.62 |
| COc1ccc(Nc2cc(N3CCCN(C)CC3)nc3cccc(OC)c23)c(C)c1 [Compound 5q, 5-Methoxy-N-(4-methoxy-2-methylphenyl)-2-(4-methyl-1,4-diazepan-1-yl)quinolin-4-amine] | 34.8 ± 1.54 | 16.9 ± 0.36 | 14.5 ± 1.23 |
| COc1cccc2nc(N3CCCN(C)CC3)cc(NCCN3CCN(C)CC3)c12 [Compound 5j, 5-Methoxy-2-(4-methyl-1,4-diazepan-1-yl)-N-(2-(4-methylpiperazin-1-yl)ethyl)quinolin-4-amine] | 4.2 ± 0.2 | 18.6 ± 2.2 | 12.4 ± 0.95 |
| COc1cccc2nc(N3CCCN(C)CC3)cc(NCCC(C)C)c12 [Compound 5h, N-Isopentyl-5-methoxy-2-(4-methyl-1,4-diazepan-1-yl)quinolin-4-amine] | 11.5 ± 1.21 | 5.46 ± 0.85 | 4.31 ± 0.57 |
| COc1cccc2nc(N3CCCCC3)cc(NC3CCN(Cc4ccccc4)CC3)c12 [Compound 5c, N-(1-Benzylpiperidin-4-yl)-5-methoxy-2-(piperidin-1-yl)quinolin-4-amine] | 32 ± 2.78 | 7.8 ± 0.46 | 5.6 ± 0.14 |
| COc1cccc2nc(Cl)cc(NC3CCN(Cc4ccccc4)CC3)c12 [Compound 1, N-(1-benzylpiperidin-4-yl)-2-chloro-5-methoxyquinolin-4-amine] |  |  | > 20 |
| COc1cccc2nc(N3CCCN(C)CC3)cc(NC3CCN(Cc4ccccc4)CC3)c12 [Compound 5g, N-(1-Benzylpiperidin-4-yl)-5-methoxy-2-(4-methyl-1,4-diazepan-1-yl)quinolin-4-amine] | 6.6 ± 0.49 | 3.78 ± 0.07 | 4.56 ± 0.24 |
| COc1cccc2nc(N3CCCN(C)CC3)cc(Nc3ccc(N(C)C)cc3)c12 [Compound 5p, N1-(5-Methoxy-2-(4-methyl-1,4-diazepan-1-yl)quinolin-4-yl)-N4,N4-dimethylbenzene-1,4-diamine] | 27.6 ± 0.97 | 17.4 ± 1.54 | 16.2 ± 1.67 |
| COc1ccc(Nc2cc(N3CCCN(C)CC3)nc3cccc(OC)c23)cc1 [Compound 5m, 5-Methoxy-N-(4-methoxyphenyl)-2-(4-methyl-1,4-diazepan-1-yl)quinolin-4-amine] | 19.7 ± 2.56 | 18.9 ± 1.97 | > 20 |
| COc1ccc2c(NC3CCN(C)CC3)cc(N3CCCN(C)CC3)nc2c1OC [Compound 9i, 7,8-Dimethoxy-2-(4-methyl-1,4-diazepan-1-yl)-N-(1-methylpiperidin-4-yl)quinolin-4-amine] | 13.7 ± 1.32 | > 20 | > 20 |
| COc1cccc2nc(N3CCCN(C)CC3)cc(NC3CCOCC3)c12 [Compound 5l, 5-Methoxy-2-(4-methyl-1,4-diazepan-1-yl)-N-(tetrahydro-2H-pyran-4-yl)quinolin-4-amine] | 2.8 ± 0.21 | 15.5 ± 0.2 | 2.4 ± 0.49 |
| COc1cccc2nc(N3CCCN(C)CC3)cc(Nc3ccc(C)cc3)c12 [Compound 5r, 5-Methoxy-2-(4-methyl-1,4-diazepan-1-yl)-N-(p-tolyl)quinolin-4-amine] | 39.7 ± 1.26 | 12.9 ± 0.89 | > 20 |
| COc1cccc2nc(N3CCCN(C)CC3)cc(NC3CCN(C(C)C)CC3)c12 [Compound 5i, N-(1-Isopropylpiperidin-4-yl)-5-methoxy-2-(4-methyl-1,4-diazepan-1-yl)quinolin-4-amine] | 17.4 ± 1.07 | > 20 | 15.7 ± 1.27 |
| COc1cccc2nc(Nc3ccc([N+](=O)[O-])cc3)cc(NC3CCN(Cc4ccccc4)CC3)c12 [Compound 5e, N4-(1-Benzylpiperidin-4-yl)-5-methoxy-N2-(4-nitrophenyl)quinoline-2,4-diamine] | 29.4 ± 1.01 | 17.8 ± 1.27 | 14.9 ± 2.2 |
| COc1cccc2nc(Nc3ncccn3)cc(NC3CCN(Cc4ccccc4)CC3)c12 [Compound 5d, N4-(1-Benzylpiperidin-4-yl)-5-methoxy-N2-(pyrimidin-2-yl)quinoline-2,4-diamine] | 17.5 ± 0.96 | > 20 | > 20 |
| COc1cc(OC)c2nc(N3CCCN(C)CC3)cc(NC3CCN(C)CC3)c2c1 [Compound 9h, 6,8-Dimethoxy-2-(4-methyl-1,4-diazepan-1-yl)-N-(1-methylpiperidin-4-yl)quinolin-4-amine] | 14.9 ± 1.71 | 19.8 ± 1.27 | 13.2 ± 1.64 |
| COc1ccccc1Nc1cc(N2CCCN(C)CC2)nc2cccc(OC)c12 [Compound 5o, 5-Methoxy-N-(2-methoxyphenyl)-2-(4-methyl-1,4-diazepan-1-yl)quinolin-4-amine] | 17.5 ± 1.13 | > 20 | > 20 |
| COc1cccc2nc(N3CCN(C)CC3)cc(NC3CCN(Cc4ccccc4)CC3)c12 [Compound 5a, N-(1-Benzylpiperidin-4-yl)-5-methoxy-2-(4-methylpiperazin-1-yl)quinolin-4-amine] | 16.4 ± 1.24 | 12.3 ± 0.95 | 11.9 ± 1.83 |
| COc1cccc2nc(N3CCCN(C)CC3)cc(Nc3cc(C(F)(F)F)cc(C(F)(F)F)c3)c12 [Compound 5v, N-(3,5-Bis(trifluoromethyl)phenyl)-5-methoxy-2-(4-methyl-1,4-diazepan-1-yl)quinolin-4-amine] | 34.1 ± 2.22 | 10.2 ± 1.24 | > 20 |
